From ChEMBL document CHEMBL4364293, “Design, Synthesis, and Structure-Activity Relationship of 7-Propanamide Benzoxaboroles as Potent Anticancer Agents” (J Med Chem, 2019) come the findings set out here.

In one assay the test system is MDA-MB-231. In words: Antiproliferative activity against human MDA-MB-231 cells after 72 hrs by MTT assay. It is filed as functional, cell-based. The conditions noted are these: MDA-MB-231, 72 h. A general note: Tetrazolium dyes change colour on reduction, which living cells bring about.
For another assay, the system named is WI-38. Briefly: Cytotoxicity against human WI38 cells after 72 hrs by MTT assay. The conditions noted are these: WI-38, 72 h. The assay is classed as cell-based.
A further assay has as its system SK-OV-3. Briefly: Antiproliferative activity against human SKOV3 cells after 72 hrs by MTT assay. It is filed as functional, cell-based. The conditions noted are these: SK-OV-3, 72 h.
For the next assay, the system named is HCT-116. Briefly: Antiproliferative activity against human HCT116 cells after 72 hrs by MTT assay. The assay is classed as functional, cell-based. The conditions noted are these: HCT-116, 72 h.

Molecules are shown by their SMILES.

With `CC(=O)c1ccc(-c2cccc(NC(=O)CCc3cccc4c3C(O)OC4)c2)cc1` (centres undefined), the IC50 in the assay with MDA-MB-231 is 29 µM; with WI-38, above 100 µM; with SK-OV-3, 41 µM; in the assay on HCT-116, 18 µM.
The corresponding values for `C#Cc1cccc(NC(=O)CCc2cccc3c2B(O)OC3)c1` are 1.6 µM, above 100 µM, 0.98 µM and 3.6 µM.
Take `O=C(CCc1cccc2c1B(O)OC2)Nc1cccc(I)c1`: the IC50 in the assay with MDA-MB-231 came to 5.3 µM; with WI-38, 71 µM; with SK-OV-3, 0.63 µM; with HCT-116, 2.3 µM.
On to `O=C(CCc1ccccc1)Nc1ccccc1`, for which the IC50 with MDA-MB-231, with WI-38, with SK-OV-3 and with HCT-116 was above 100 µM throughout.
For the compound `O=C(CCc1cccc2c1B(O)OC2)Nc1cccc(-c2ccc(OC(F)(F)F)cc2)c1`, the IC50 in the assay with MDA-MB-231 was 0.64 µM; in the assay with WI-38, 25 µM; with SK-OV-3 it was 0.56 µM; in the assay with HCT-116 it was 0.73 µM.
For `COc1cccc(-c2cccc(NC(=O)CCc3ccc4c(c3)COB4O)c2)c1`, the IC50 was 90 µM in the assay with MDA-MB-231, above 100 µM in the assay on WI-38, above 100 µM in the assay on SK-OV-3 and 81 µM in the assay with HCT-116.
Turning to `O=C(O)CCc1cccc2c1B(O)OC2`, the IC50 in the assay with MDA-MB-231, in the assay on WI-38, in the assay with SK-OV-3 and in the assay on HCT-116 was above 100 µM in each case.
As to `COc1cc(OC)cc(-c2cccc(NC(=O)CCc3ccc4c(c3)B(O)OC4)c2)c1`, the IC50 is 21 µM in the assay with MDA-MB-231, above 100 µM with WI-38, 29 µM in the assay on SK-OV-3 and 3.7 µM in the assay with HCT-116.
With `COc1cccc2c1C(=O)c1c(O)c3c(c(O)c1C2=O)C[C@@](O)(C(=O)CO)C[C@@H]3O[C@H]1C[C@H](N)[C@H](O)[C@H](C)O1` [DOXORUBICIN], the IC50 came out at 0.0069 µM in the assay with MDA-MB-231, 0.59 µM in the assay on WI-38, 0.032 µM in the assay on SK-OV-3 and 0.023 µM in the assay on HCT-116.
Consider `O=C(CCc1cccc2c1B(O)OC2)Nc1ccccc1-c1ccccc1`, for which the IC50 turned out to be 18 µM with MDA-MB-231, 77 µM with WI-38, 26 µM with SK-OV-3 and 23 µM in the assay on HCT-116.
Take `OB1OCc2cc(F)ccc21` [TAVABOROLE]: the IC50 is above 100 µM in the assay with MDA-MB-231, 32 µM in the assay with WI-38, above 100 µM with SK-OV-3 and 65 µM with HCT-116.
For the compound `O=C(CCc1cccc2c1B(O)OC2)Nc1ccc(Br)cc1`, the IC50 in the assay with MDA-MB-231 is 5.3 µM; in the assay with WI-38 it was 42 µM; in the assay with SK-OV-3, 9.2 µM; in the assay with HCT-116 it was 46 µM.
On to `COc1cc(OC)cc(-c2cccc(NC(=O)CCc3cccc4c3B(O)OC4)c2)c1`, for which the IC50 with MDA-MB-231 came out at 0.04 µM; in the assay with WI-38, 1.7 µM; with SK-OV-3, 0.044 µM; in the assay on HCT-116, 0.053 µM.
On to `CC(C)(C)NC(=O)CCc1cccc2c1B(O)OC2`, for which the IC50 in the assay on MDA-MB-231, in the assay on WI-38, in the assay on SK-OV-3 and in the assay on HCT-116 was above 100 µM each time.
Turning to `N#Cc1cccc(-c2cccc(NC(=O)CCc3cccc4c3B(O)OC4)c2)c1`, the IC50 was 0.11 µM with MDA-MB-231, 7.3 µM with WI-38, 0.12 µM in the assay on SK-OV-3 and 0.14 µM in the assay on HCT-116.
Take `O=C(CCc1cccc2c1B(O)OC2)Nc1cccc(-c2cccc(F)c2)c1`: the IC50 in the assay on MDA-MB-231 is 0.57 µM; in the assay with WI-38, 37 µM; in the assay with SK-OV-3, 0.48 µM; in the assay on HCT-116, 0.46 µM.
Consider `CC(=O)c1ccc(-c2cccc(NC(=O)CCc3ccc4c(c3)COB4O)c2)cc1`, for which the IC50 in the assay on MDA-MB-231 is 66 µM; in the assay on WI-38 it was above 100 µM; with SK-OV-3, 79 µM; in the assay with HCT-116 it was 63 µM.
Take `O=C(CCc1cccc2c1B(O)OC2)Nc1cccc(-c2cccc(OC(F)(F)F)c2)c1`: the IC50 in the assay on MDA-MB-231 stood at 0.46 µM; in the assay with WI-38, 9.8 µM; in the assay with SK-OV-3, 0.46 µM; with HCT-116, 0.31 µM.
Turning to `O=C(CCc1cccc2c1B(O)OC2)Nc1cccc(-c2cccc(Cl)c2)c1`, the IC50 in the assay on MDA-MB-231 was 0.25 µM; in the assay with WI-38, 58 µM; in the assay on SK-OV-3, 0.3 µM; in the assay on HCT-116, 0.35 µM.
As for `C#Cc1ccccc1NC(=O)CCc1cccc2c1B(O)OC2`, the IC50 in the assay with MDA-MB-231 is 1.3 µM; with WI-38, 18 µM; with SK-OV-3, 0.82 µM; with HCT-116, 1.4 µM.
The like results for `CSc1cccc(-c2cccc(NC(=O)CCc3cccc4c3B(O)OC4)c2)c1` were, in that order, 0.15 µM, 2 µM, 0.15 µM and 0.11 µM.
Regarding `CC(=O)c1cccc(-c2cccc(NC(=O)CCc3cccc4c3B(O)OC4)c2)c1`, the IC50 stood at 0.052 µM in the assay on MDA-MB-231, 2.2 µM in the assay with WI-38, 0.068 µM in the assay with SK-OV-3 and 0.086 µM in the assay with HCT-116.
The like results for `O=C(/C=C/c1cccc2c1B(O)OC2)Nc1ccccc1` were, in that order, above 100 µM, above 100 µM, above 100 µM and above 100 µM.
For the compound `O=C(CCc1cccc2c1B(O)OC2)Nc1ccc([N+](=O)[O-])cc1`, the IC50 was 36 µM with MDA-MB-231, above 100 µM with WI-38, 83 µM in the assay with SK-OV-3 and above 100 µM in the assay with HCT-116.
With `O=C(CCc1cccc2c1C(O)OC2)Nc1ccccc1` (centres undefined), the IC50 in the assay on MDA-MB-231 worked out at 12 µM; in the assay on WI-38, 42 µM; in the assay with SK-OV-3, 78 µM; in the assay on HCT-116, 22 µM.
As for `O=C(CCc1cccc2c1B(O)OC2)Nc1ccc(I)cc1`, the IC50 with MDA-MB-231 turned out to be 33 µM; in the assay with WI-38, 49 µM; in the assay on SK-OV-3 it was 51 µM; in the assay on HCT-116 it was 50 µM.
Turning to `O=C(CCc1cccc2c1B(O)OC2)Nc1cccc(Br)c1`, the IC50 in the assay on MDA-MB-231 came out at 0.72 µM; with WI-38 it was 20 µM; in the assay with SK-OV-3, 0.54 µM; in the assay with HCT-116 it was 1.4 µM.
Consider `O=C(CCc1cccc2c1B(O)OC2)Nc1ccc(-c2ccccc2)cc1`, for which the IC50 in the assay with MDA-MB-231 worked out at 8.8 µM; in the assay on WI-38 it was 32 µM; in the assay on SK-OV-3, 48 µM; in the assay on HCT-116, 13 µM.
For the compound `COc1cccc(-c2cccc(NC(=O)CCc3ccccc3)c2)c1`, the 50% inhibitory concentration (IC50) with MDA-MB-231 was 25 µM; in the assay with WI-38, above 100 µM; in the assay with SK-OV-3 it was 24 µM; with HCT-116, 40 µM.
As to `COc1cc(OC)cc(-c2cccc(NC(=O)CCc3cccc4c3COB4O)c2)c1`, the IC50 in the assay on MDA-MB-231 was 93 µM; with WI-38, above 100 µM; in the assay on SK-OV-3, 88 µM; in the assay on HCT-116 it was 50 µM.
The like results for `C#Cc1ccc(NC(=O)CCc2cccc3c2B(O)OC3)cc1` were, in that order, 6.6 µM, above 100 µM, 6.3 µM and 45 µM.
On to `COc1ccc(NC(=O)CCc2cccc3c2B(O)OC3)cc1`, for which the IC50 in the assay on MDA-MB-231 is 0.85 µM; in the assay on WI-38 it was above 100 µM; in the assay on SK-OV-3, 0.9 µM; in the assay with HCT-116, 1.7 µM.
Consider `COc1ccc(NC(=O)CCc2cccc3c2B(O)OC3)cc1OC`, for which the IC50 with MDA-MB-231, in the assay with WI-38, in the assay on SK-OV-3 and with HCT-116 was above 100 µM each time.
Turning to `Cc1cc(C)c(NC(=O)CCc2cccc3c2B(O)OC3)c(C)c1`, the IC50 in the assay on MDA-MB-231 was found to be 71 µM; in the assay with WI-38, 74 µM; with SK-OV-3, 19 µM; in the assay on HCT-116 it was 64 µM.
Turning to `CC(=O)c1ccc(-c2cccc(NC(=O)CCc3cccc4c3COB4O)c2)cc1`, the concentration for half-maximal inhibition (IC50) was 41 µM with MDA-MB-231, above 100 µM with WI-38, 57 µM in the assay on SK-OV-3 and 48 µM with HCT-116.
As for `O=C(CCc1cccc2c1B(O)OC2)Nc1cccc(-c2ccccc2)c1`, the IC50 amounted to 0.22 µM in the assay with MDA-MB-231, 12 µM in the assay on WI-38, 0.25 µM with SK-OV-3 and 0.89 µM with HCT-116.
The corresponding values for `O=C(CCc1cccc2c1B(O)OC2)Nc1cccc(-c2ccc(C(F)(F)F)cc2)c1` are 0.51 µM, 26 µM, 0.5 µM and 0.55 µM.
Take `O=C(CCc1cccc2c1B(O)OC2)Nc1cccc2ccccc12`: the IC50 in the assay on MDA-MB-231 turned out to be 0.15 µM; with WI-38, 1.2 µM; in the assay on SK-OV-3, 0.17 µM; in the assay on HCT-116 it was 0.2 µM.
Regarding `O=C(CCc1cccc2c1B(O)OC2)NCCc1ccccc1`, the IC50 in the assay on MDA-MB-231, in the assay on WI-38, with SK-OV-3 and with HCT-116 was above 100 µM throughout.
As for `CCNC(=O)CCc1cccc2c1B(O)OC2`, the IC50 in the assay with MDA-MB-231, in the assay on WI-38, in the assay with SK-OV-3 and with HCT-116 was above 100 µM each time.
`O=C(CCc1cccc2c1B(O)OC2)NC1CCCCC1`: the 50% inhibitory concentration (IC50) with MDA-MB-231, with WI-38, in the assay on SK-OV-3 and with HCT-116 was above 100 µM throughout.
Consider `O=C(CCc1cccc2c1B(O)OC2)Nc1ccc(F)cc1`, for which the IC50 in the assay on MDA-MB-231 came to 0.44 µM; in the assay with WI-38, 12 µM; in the assay on SK-OV-3, 0.72 µM; in the assay on HCT-116, 0.65 µM.
As for `O=C(CCc1cccc2c1B(O)OC2)Nc1nccs1`, the IC50 in the assay on MDA-MB-231, in the assay with WI-38, in the assay with SK-OV-3 and with HCT-116 was above 100 µM throughout.
Regarding `Cc1ccc(NC(=O)CCc2cccc3c2B(O)OC3)cc1Br`, the IC50 in the assay on MDA-MB-231 was 0.87 µM; in the assay on WI-38, 15 µM; in the assay on SK-OV-3, 0.6 µM; with HCT-116 it was 1.2 µM.
For the compound `COc1ccccc1NC(=O)CCc1cccc2c1B(O)OC2`, the IC50 worked out at 0.93 µM in the assay with MDA-MB-231, 1.6 µM in the assay on WI-38, 0.2 µM with SK-OV-3 and 0.43 µM in the assay with HCT-116.
For the compound `O=C(CCc1cccc2c1B(O)OC2)Nc1cccc(-c2ccc(Cl)cc2)c1`, the IC50 amounted to 0.26 µM with MDA-MB-231, 9.8 µM with WI-38, 0.22 µM in the assay on SK-OV-3 and 0.38 µM in the assay on HCT-116.

As a reminder, the IC50 is the concentration needed to halve the response being measured. Higher therefore signals weaker potency in that assay.
